# Laboratory results from PubChem BioAssay AID2060904 (Molecular Pharmacology Branch, DTP, NCI, 2025).
# Tested on: 349418-098-R-PDC complex spheroid viability
# Assay: Anticancer human tumor 349418-098-R-PDC patient-derived lung adenocarcinoma cell line growth inhibition [RAS]
# Settings: for IC50: curve of first compound; for viability, T/C: stronger effect = lower value
# How it was run: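 Multi-cell-type spheroids: tumor cells plus HUVEC endothelial cells and mesenchymal stem cells. RAS-pathway inhibitors were combined with targeted agents, each dosed in half-log steps down from clinical Cmax, or from 10 microM when Cmax was unknown.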
# [1] = second compound 0.00316 µM, first compound 0.0316 µM
# [2] = second compound 0.00316 µM, first compound 0.1 µM
# [3] = second compound 0.00316 µM, first compound 0.316 µM
# [4] = second compound 0.00316 µM, first compound 1 µM
# [5] = second compound 0.01 µM, first compound 0.0316 µM
# [6] = second compound 0.01 µM, first compound 0.1 µM
# [7] = second compound 0.01 µM, first compound 0.316 µM
# [8] = second compound 0.01 µM, first compound 1 µM
# [9] = second compound 0.0316 µM, first compound 0.0316 µM
# [10] = second compound 0.0316 µM, first compound 0.1 µM
# [11] = second compound 0.0316 µM, first compound 0.316 µM
# [12] = second compound 0.0316 µM, first compound 1 µM
# [13] = second compound 0.1 µM, first compound 0.0316 µM
# [14] = second compound 0.1 µM, first compound 0.1 µM
# [15] = second compound 0.1 µM, first compound 0.316 µM
# [16] = second compound 0.1 µM, first compound 1 µM
# [17] = second compound 0.316 µM, first compound 0.0316 µM
# [18] = second compound 0.316 µM, first compound 0.1 µM
# [19] = second compound 0.316 µM, first compound 0.316 µM
# [20] = second compound 0.316 µM, first compound 1 µM
# [21] = second compound 1 µM, first compound 0.0316 µM
# [22] = second compound 1 µM, first compound 0.1 µM
# [23] = second compound 1 µM, first compound 0.316 µM
# [24] = second compound 1 µM, first compound 1 µM
# 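Also: spheroids exposed to compound for seven days before viability readout.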
compound,measurement,setting,value
NC1c2ccccc2OC12CCN(c1cnc3c(N4CCCc5ncccc54)n[nH]c3n1)CC2 (centres undefined) + C=CC(=O)N1CCN(c2nc(OCC3CCCN3C)nc3c(F)c(-c4nc(N)cc(C)c4C(F)(F)F)c(Cl)cc23)C(C)C1,IC50,second compound 0.00316 µM,> 10 µM
same,IC50,second compound 0.01 µM,> 10 µM
same,IC50,second compound 0.0316 µM,> 10 µM
same,IC50,second compound 0.1 µM,> 10 µM
same,IC50,second compound 0.316 µM,> 10 µM
same,IC50,second compound 1 µM,> 10 µM
same,"viability, T/C",[1],106%
same,"viability, T/C",[2],85.4%
same,"viability, T/C",[3],93.2%
same,"viability, T/C",[4],75.5%
same,"viability, T/C","second compound 0.00316 µM, first compound 3.16 µM",102%
same,"viability, T/C","second compound 0.00316 µM, first compound 10 µM",55.8%
same,"viability, T/C",[5],113%
same,"viability, T/C",[6],91.4%
same,"viability, T/C",[7],110%
same,"viability, T/C",[8],72.9%
same,"viability, T/C","second compound 0.01 µM, first compound 3.16 µM",93.9%
same,"viability, T/C","second compound 0.01 µM, first compound 10 µM",68.5%
same,"viability, T/C",[9],114%
same,"viability, T/C",[10],100%
same,"viability, T/C",[11],67%
same,"viability, T/C",[12],86%
same,"viability, T/C","second compound 0.0316 µM, first compound 3.16 µM",82.3%
same,"viability, T/C","second compound 0.0316 µM, first compound 10 µM",71.1%
same,"viability, T/C",[13],100%
same,"viability, T/C",[14],82.5%
same,"viability, T/C",[15],83.1%
same,"viability, T/C",[16],101%
same,"viability, T/C","second compound 0.1 µM, first compound 3.16 µM",119%
same,"viability, T/C","second compound 0.1 µM, first compound 10 µM",76.7%
same,"viability, T/C",[17],80%
same,"viability, T/C",[18],92.7%
same,"viability, T/C",[19],92.1%
same,"viability, T/C",[20],91.1%
same,"viability, T/C","second compound 0.316 µM, first compound 3.16 µM",100%
same,"viability, T/C","second compound 0.316 µM, first compound 10 µM",64%
same,"viability, T/C",[21],64.5%
same,"viability, T/C",[22],89.8%
same,"viability, T/C",[23],74%
same,"viability, T/C",[24],83.7%
same,"viability, T/C","second compound 1 µM, first compound 3.16 µM",71.2%
same,"viability, T/C","second compound 1 µM, first compound 10 µM",69.1%
Nc1ccn(C2OC(CO)C(O)C2(F)F)c(=O)n1 (centres undefined) + C=CC(=O)N1CCN(c2nc(OCC3CCCN3C)nc3c(F)c(-c4nc(N)cc(C)c4C(F)(F)F)c(Cl)cc23)C(C)C1,IC50,second compound 0.00316 µM,< 0.00316 µM
same,IC50,second compound 0.01 µM,< 0.00316 µM
same,IC50,second compound 0.0316 µM,< 0.00316 µM
same,IC50,second compound 0.1 µM,< 0.00316 µM
same,IC50,second compound 0.316 µM,< 0.00316 µM
same,IC50,second compound 1 µM,< 0.00316 µM
same,"viability, T/C","second compound 0.00316 µM, first compound 0.00316 µM",21.5%
same,"viability, T/C","second compound 0.00316 µM, first compound 0.01 µM",7.36%
same,"viability, T/C",[1],6.2%
same,"viability, T/C",[2],4.92%
same,"viability, T/C",[3],5.23%
same,"viability, T/C",[4],5.62%
same,"viability, T/C","second compound 0.01 µM, first compound 0.00316 µM",17%
same,"viability, T/C","second compound 0.01 µM, first compound 0.01 µM",6.27%
same,"viability, T/C",[5],5.91%
same,"viability, T/C",[6],5.09%
same,"viability, T/C",[7],5.47%
same,"viability, T/C",[8],5.2%
same,"viability, T/C","second compound 0.0316 µM, first compound 0.00316 µM",21.6%
same,"viability, T/C","second compound 0.0316 µM, first compound 0.01 µM",6.92%
same,"viability, T/C",[9],6.95%
same,"viability, T/C",[10],5.38%
same,"viability, T/C",[11],5.08%
same,"viability, T/C",[12],4.96%
same,"viability, T/C","second compound 0.1 µM, first compound 0.00316 µM",22.6%
same,"viability, T/C","second compound 0.1 µM, first compound 0.01 µM",6.48%
same,"viability, T/C",[13],4.56%
same,"viability, T/C",[14],4.77%
same,"viability, T/C",[15],4.97%
same,"viability, T/C",[16],4.84%
same,"viability, T/C","second compound 0.316 µM, first compound 0.00316 µM",19.2%
same,"viability, T/C","second compound 0.316 µM, first compound 0.01 µM",8.3%
same,"viability, T/C",[17],4.99%
same,"viability, T/C",[18],5.68%
same,"viability, T/C",[19],6.7%
same,"viability, T/C",[20],4.81%
same,"viability, T/C","second compound 1 µM, first compound 0.00316 µM",22.9%
same,"viability, T/C","second compound 1 µM, first compound 0.01 µM",6.24%
same,"viability, T/C",[21],4.96%
same,"viability, T/C",[22],6.96%
same,"viability, T/C",[23],7.44%
same,"viability, T/C",[24],5.82%
